Reference: patent publication US10935560B2, “Method and kit for identifying lupus anticoagulant (LA) associated with antiphospholipid syndrome” (Instrumentation Laboratory Company, priority 2016, dated 2021)
Entries after “also recorded” stand apart in the source; their conditions may differ.

Key:
Type in all cases: biochemical, human
[1] = system: LA positive plasma sample; test: dRVVT Screen / dRVVT Confirm test, 1:1 mixing study; conditions: for NR of dRVVT test: 1000 ng/ml PPACK
From the text: (§1) The results of the LA screening assays are expressed by Screen Ratio (Rs), an assay done in the presence of low levels of phospholipid, Confirm Ratio (Re), an assay done in the presence of elevated levels of phospholipid, Screen-to-Confirm Ratio (R) and Normalized Screen-to-Confirm Ratio (NR) defined as follows: […]
(§2) For each of the assays above, irrespective of the clotting inhibitor used in the assay, the measured screen assay clotting time of a patient sample is compared to the measured screen assay clotting time of normal platelet poor plasma and expressed as a ratio (Rs). Additionally, the measured confirm assay clotting time of a patient sample is compared to the measured confirm assay clotting time of normal platelet poor plasma and expressed as a ratio (Rc). A normalized ratio (NR) is expressed as Rs/Rc. The NR is compared to a cutoff ratio established from normal, healthy subjects.

[2] = system: normal pooled plasma (NPP); test: as above
From the text: as §1, §2

[3] = system: LA positive plasma sample; test: APTT-based silica clotting time (SCT Screen / SCT Confirm) assay, 1:1 mixing study
From the text: as §1, §2
(§3) D-phenylalanyl-1-prolyl-1-arginine-chloromethyl ketone (PPACK) is a synthetic peptide that irreversibly binds to the catalytic site of thrombin. Referring to FIGS. 1-3, the use of PPACK in an SCT assay is shown where a plasma test sample was mixed with a LA negative plasma sample pool in a 1:1 ratio during testing (i.e., in a mixing study setting). By a mixing study, clotting factors that are present in normal plasma are added to the test plasma suspected of having a coagulation disorder.
(§4) Referring to FIGS. 1A-B, while the effect of PPACK on SCT Screen and SCT Confirm is similar for the LA negative sample, PPACK has much greater impact on SCT Screen than on SCT Confirm for the LA positive samples.
The effect of PPACK on LA detection is further analyzed on the LA positive sample diluted with LA negative sample in different ratios (1:1 and 1:3 of LA positive: LA Negative). When the LA positive sample was diluted 4-fold with LA negative sample, the LA was not detectable in the absence of PPACK (NR: […]) thereby underscoring the increased sensitivity of the method disclosed herein.

[4] = system: LA negative sample (platelet poor NPP); test: as above; conditions: for Screen-to-Confirm Ratio (R) of SCT Assay: LA negative sample
From the text: as §1, §2, §3, §4

[5] = system: patient plasma samples (LA negative, factor deficient, LA positive); test: HemosIL dRVVT Screen and dRVVT Confirm in the presence of PPACK, 1:1 mixing study setting, patient samples; conditions: 350 nM PPACK
From the text: as §1
For each of the assays above, irrespective of the clotting inhibitor used in the assay, the measured screen assay clotting time of a patient sample is compared to the measured screen assay clotting time of normal platelet poor plasma and expressed as a ratio (Rs). Additionally, the measured confirm assay clotting time of a patient sample is compared to the measured confirm assay clotting time of normal platelet poor plasma and expressed as a ratio (Rc). A normalized ratio (NR) is expressed as Rs/Rc. The NR is compared to a cutoff ratio established from normal, healthy subjects. […]
The study reported the normalized ratio correctly for all plasma samples and addressed issues with factor deficiency (Table 2).

[6] = sample 0114 LA NEG, LA Negative Pool
[7] = sample 0114 S03, FVIIIDef (con)
[8] = sample 0114 S04, FVIIIDef (con)
[9] = sample 0114 S05, FVIII (con)/vWF Def
[10] = sample 0114 S06, FVIII (con)/vWF Def

D-phenylalanyl-1-prolyl-1-arginine-chloromethyl ketone [PPACK]
NR of dRVVT test ([1]; LA positive sample 1:1 diluted with NPP, automated mixing study 1:1): 1.42 | NR of dRVVT test ([1]; LA positive sample 1:3 diluted with NPP, automated mixing study 1:1): 1.19 | NR of dRVVT test ([1]; LA positive sample undiluted, automated mixing study 1:1 with NPP/PPACK): 1.76 | Screen-to-Confirm Ratio of dRVVT test ([1]; LA positive sample, increasing PPACK concentrations (from 1.42)): 1.58 | Screen-to-Confirm Ratio of dRVVT test ([2]; increasing PPACK concentrations (from 1.02)): 0.91 | Normalized Ratio (NR) of SCT Assay ([3]; LA positive sample 1:1 diluted with NPP, 1000 ng/ml PPACK, automated mixing study 1:1): 1.82 | Normalized Ratio (NR) of SCT Assay ([3]; LA positive sample 1:3 diluted with NPP, 1000 ng/ml PPACK, automated mixing study 1:1): 1.46 | Normalized Ratio (NR) of SCT Assay ([3]; LA positive sample diluted 4-fold with LA negative sample, 1000 nM PPACK (1.08 in the absence of PPACK)): 1.46 | Normalized Ratio (NR) of SCT Assay ([3]; LA positive sample undiluted, 1000 ng/ml PPACK, automated mixing study 1:1 with NPP/PPACK): 2.34 | Screen-to-Confirm Ratio (R) of SCT Assay ([3]; LA positive sample, 1000 nM PPACK (1.09 in the absence of PPACK)): 1.82 | Screen-to-Confirm Ratio (R) of SCT Assay ([4]; 100 nM PPACK (0.81 at 0 nM)): 0.83 | Screen-to-Confirm Ratio (R) of SCT Assay ([4]; 1000 nM PPACK (0.81 at 0 nM)): 0.78 | Change of Screen-to-Confirm Ratio of SCT Assay ([4]; NPP / LA negative sample, increasing PPACK concentrations): remained the same; also recorded: decreased slightly | Confirm [5, 6]: 50.4 s | Confirm (Rc) [5, 6]: 1.00 | S/C (NR) [5, 6]: 1.00 | S/C (R) [5, 6]: 0.98 | Screen [5, 6]: 49.6 s | Screen (Rs) [5, 6]: 1.00 | Confirm ([5]; sample 0114 S01, FVDef (con)): 62.8 s | Confirm (Rc) ([5]; sample 0114 S01, FVDef (con)): 1.25 | S/C (NR) ([5]; sample 0114 S01, FVDef (con)): 1.02 | S/C (R) ([5]; sample 0114 S01, FVDef (con)): 1.01 | Screen ([5]; sample 0114 S01, FVDef (con)): 63.3 s | Screen (Rs) ([5]; sample 0114 S01, FVDef (con)): 1.28 | Confirm ([5]; sample 0114 S02, FVDef (con)): 54.2 s | Confirm (Rc) ([5]; sample 0114 S02, FVDef (con)): 1.08 | S/C (NR) ([5]; sample 0114 S02, FVDef (con)): 0.88 | S/C (R) ([5]; sample 0114 S02, FVDef (con)): 0.87 | Screen ([5]; sample 0114 S02, FVDef (con)): 46.9 s | Screen (Rs) ([5]; sample 0114 S02, FVDef (con)): 0.95 | Confirm [5, 7]: 47.9 s | Confirm (Rc) [5, 7]: 0.95 | S/C (NR) [5, 7]: 1.05 | S/C (R) [5, 7]: 1.04 | Screen [5, 7]: 49.7 s | Screen (Rs) [5, 7]: 1.00 | Confirm [5, 8]: 48.5 s | Confirm (Rc) [5, 8]: 0.96 | S/C (NR) [5, 8]: 1.03 | S/C (R) [5, 8]: 1.02 | Screen [5, 8]: 49.3 s | Screen (Rs) [5, 8]: 0.99 | Confirm [5, 9]: 49.2 s | Confirm (Rc) [5, 9]: 0.98 | S/C (NR) [5, 9]: 1.00 | S/C (R) [5, 9]: 0.98 | Screen [5, 9]: 48.4 s | Screen (Rs) [5, 9]: 0.98 | Confirm [5, 10]: 48.9 s | Confirm (Rc) [5, 10]: 0.97 | S/C (NR) [5, 10]: 1.01 | S/C (R) [5, 10]: 0.99 | Screen [5, 10]: 48.6 s | Screen (Rs) [5, 10]: 0.98 | Confirm ([5]; sample 0114 S07, FIXDef (con)): 50.5 s | Confirm (Rc) ([5]; sample 0114 S07, FIXDef (con)): 1.00 | S/C (NR) ([5]; sample 0114 S07, FIXDef (con)): 0.97 | S/C (R) ([5]; sample 0114 S07, FIXDef (con)): 0.95 | Screen ([5]; sample 0114 S07, FIXDef (con)): 41.1 s | Screen (Rs) ([5]; sample 0114 S07, FIXDef (con)): 0.97 | Confirm ([5]; sample 0114 S08, FIXDef (con)): 48.9 s | Confirm (Rc) ([5]; sample 0114 S08, FIXDef (con)): 0.97 | S/C (NR) ([5]; sample 0114 S08, FIXDef (con)): 1.01 | S/C (R) ([5]; sample 0114 S08, FIXDef (con)): 0.99 | Screen ([5]; sample 0114 S08, FIXDef (con)): 48.5 s | Screen (Rs) ([5]; sample 0114 S08, FIXDef (con)): 0.98 | Confirm ([5]; sample 0114 S09, FXDef (con)): 59.2 s | Confirm (Rc) ([5]; sample 0114 S09, FXDef (con)): 1.17 | S/C (NR) ([5]; sample 0114 S09, FXDef (con)): 1.04 | S/C (R) ([5]; sample 0114 S09, FXDef (con)): 1.03 | Screen ([5]; sample 0114 S09, FXDef (con)): 60.7 s | Screen (Rs) ([5]; sample 0114 S09, FXDef (con)): 1.22 | Confirm ([5]; sample 0114 S10, FXDef (con)): 51.4 s | Confirm (Rc) ([5]; sample 0114 S10, FXDef (con)): 1.02 | S/C (NR) ([5]; sample 0114 S10, FXDef (con)): 1.01 | S/C (R) ([5]; sample 0114 S10, FXDef (con)): 0.99 | Screen ([5]; sample 0114 S10, FXDef (con)): 51.1 s | Screen (Rs) ([5]; sample 0114 S10, FXDef (con)): 1.03 | Confirm ([5]; sample 0114 S11, FXIDef (con)): 49.7 s | Confirm (Rc) ([5]; sample 0114 S11, FXIDef (con)): 0.99 | S/C (NR) ([5]; sample 0114 S11, FXIDef (con)): 1.00 | S/C (R) ([5]; sample 0114 S11, FXIDef (con)): 0.98 | Screen ([5]; sample 0114 S11, FXIDef (con)): 48.8 s | Screen (Rs) ([5]; sample 0114 S11, FXIDef (con)): 0.98 | Confirm ([5]; sample 0114 S12, FXIDef (con)): 47.7 s | Confirm (Rc) ([5]; sample 0114 S12, FXIDef (con)): 0.95 | S/C (NR) ([5]; sample 0114 S12, FXIDef (con)): 1.00 | S/C (R) ([5]; sample 0114 S12, FXIDef (con)): 0.98 | Screen ([5]; sample 0114 S12, FXIDef (con)): 46.8 s | Screen (Rs) ([5]; sample 0114 S12, FXIDef (con)): 0.94 | Confirm ([5]; sample 0114 S13, FXIIDef (con)): 45.3 s | Confirm (Rc) ([5]; sample 0114 S13, FXIIDef (con)): 0.90 | S/C (NR) ([5]; sample 0114 S13, FXIIDef (con)): 1.01 | S/C (R) ([5]; sample 0114 S13, FXIIDef (con)): 0.99 | Screen ([5]; sample 0114 S13, FXIIDef (con)): 44.9 s | Screen (Rs) ([5]; sample 0114 S13, FXIIDef (con)): 0.91 | Confirm ([5]; sample 0114 S14, FXIIDef (acq)): 53.4 s | Confirm (Rc) ([5]; sample 0114 S14, FXIIDef (acq)): 1.06 | S/C (NR) ([5]; sample 0114 S14, FXIIDef (acq)): 0.94 | S/C (R) ([5]; sample 0114 S14, FXIIDef (acq)): 0.93 | Screen ([5]; sample 0114 S14, FXIIDef (acq)): 49.4 s | Screen (Rs) ([5]; sample 0114 S14, FXIIDef (acq)): 1.00 | Confirm ([5]; sample 0114 S15, LA Postive): 49.7 s | Confirm (Rc) ([5]; sample 0114 S15, LA Postive): 0.99 | S/C (NR) ([5]; sample 0114 S15, LA Postive): 2.49 | S/C (R) ([5]; sample 0114 S15, LA Postive): 2.45 | Screen ([5]; sample 0114 S15, LA Postive): 121.8 s | Screen (Rs) ([5]; sample 0114 S15, LA Postive): 2.46 | Confirm ([5]; sample 0114 S16, LA Postive): 51.7 s | Confirm (Rc) ([5]; sample 0114 S16, LA Postive): 1.03 | S/C (NR) ([5]; sample 0114 S16, LA Postive): 2.70 | S/C (R) ([5]; sample 0114 S16, LA Postive): 2.66 | Screen ([5]; sample 0114 S16, LA Postive): 137.4 s | Screen (Rs) ([5]; sample 0114 S16, LA Postive): 2.77 | Confirm ([5]; sample 0114 S17, LA Postive): 49.8 s | Confirm (Rc) ([5]; sample 0114 S17, LA Postive): 0.99 | S/C (NR) ([5]; sample 0114 S17, LA Postive): 2.19 | S/C (R) ([5]; sample 0114 S17, LA Postive): 2.15 | Screen ([5]; sample 0114 S17, LA Postive): 107.3 s | Screen (Rs) ([5]; sample 0114 S17, LA Postive): 2.16

hirudin
Normalized ratio of dRVVT Assay ([1]; LA positive sample, 200 ng/ml hirudin alone): 1.72 | Normalized ratio of dRVVT Assay ([1]; LA positive sample, 1000 ng/ml hirudin (1.39 without thrombin inhibitor)): 1.81 | Screen-to-Confirm Ratio of dRVVT Assay ([1]; LA positive sample, 1000 ng/ml hirudin (1.41 in the absence of hirudin)): 2.14 | Screen-to-Confirm Ratio of dRVVT Assay ([2]; 1000 ng/ml hirudin (1.02 in the absence of hirudin)): 1.18
